Test [1] deals with PCP induced deficits in the 5-CSRT task in DBA/2N mice. Nature of the test: Cognitive impairment in schizophrenia: PCP-induced deficits in five-choice serial reaction time task. It counts as in vivo, mouse.
For test [2], the target named is T1, recombinant Nav 1.3 channels (Homo sapiens, UniProt Q9NY46).
T1 construct: expressed in transfected cells; host or cells: HEK293 cells
Nature of the test: Patch clamp studies of sodium currents inhibition in HEK293 cells. Format: cell-based. To be noted: tonic block, preconditioning −50 mV (half maximal steady-state inactivated condition); read-out: IC50 (Vhalf). The protocol: Cells and methods: Functional inhibition of the sodium currents was studied using whole cell patch clamp methods (Hamill O. P., Marty A., Neher E., Sakmann B., Sigworth F. J., Pflugers Arch. (1981) 391 (2): 85-100) on HEK293 cells expressing recombinant Nav 1.3 channels. Membrane currents were recorded as described in the example above.
For sodium current recording control bath solution contained (mM): NaCl (80), Choline chloride (38), CaCl2 (1.3), MgCl2 (2), KCl (2), CdCl2 (0.4), NiCl2 (0.3), TEA.Cl (20), Hepes (10), Glucose (10). Internal pipette solution consisted of (mM): EGTA (10), NaCl (10), CaCl2 (1.3), MgCl2 (2), Hepes (10), CsF (130), MgATP (1).
(§1) Compounds were dissolved as 20 mM stock solutions in DMSO and then diluted to the final concentration in the external solutions.
Voltage protocols and data analyses: A two-step protocol was used to determine the voltage dependence of the block:
sodium current was activated by a 30 ms step pulse to 10 mV (test pulse) from a 2000 ms preconditioning potential of −100 mV (resting condition) or −50 mV (half maximal steady-state inactivated condition), respectively.
The amplitude of sodium current peaks evoked by the respective test pulses at a frequency of 0.06 Hz were measured before and after exposure to the test substance. Tonic block of currents was calculated as the difference between the Nacurrent peak measured at the end of a stabilization period in the control external bath solution and the current peak measured at the end of test substance perfusion period (when steady state is reached) divided by control peaks. Drug concentration-inhibition curves were obtained by plotting tonic blocks versus drug concentrations. Dose-response curves were fitted to the tonic block data, according to the logistic equation: y=A2+(A1−A2)/[1+(x/IC50)^p]. A1 and A2 are fixed values of 0 and 1 corresponding to 0 and 100% current inhibition, x is the drug concentration, IC50 is the drug concentration resulting in 50% current inhibition and p is the corresponding slope factor.

The subject of test [3] is maximal electroshock seizures in mice. Nature of the test: Maximal electroshock test (MES) in mice. It counts as in vivo, mouse. The settings on record: i.v., 5 minutes before testing. From the text:
Animals and Apparatus: Male CDl mice weighing 25 g were used. The procedure described by White et al. (White H. S., Woodhead J. H., Franklin […]., and Wolf H. H. Antiepileptic Drugs (1995) 4th ed: 99-110, Raven Press, Ltd., New York) was followed. An Ugo Basile electroconvulsive generator (Model ECT UNIT 7801) was used to deliver an electrical stimulus sufficient to produce a hindlimb tonic extensor response in at least 97% of control animals. The stimulus was delivered intra-aurally through clip electrodes in mice (0.7 s of a 40 mA shock, with a pulse train of 80 Hz having a pulse duration of 0.4 ms). […] Ten mice were studied per group. Complete suppression of the hindlimb tonic extensor component of seizures was taken as evidence of anticonvulsant activity.

Test [4] has as its target recombinant human N-type channels, h α1B (hCav2.2)+β1b+α2δ-1 subunits (Homo sapiens, UniProt Q00975). Nature of the test: Patch clamp studies of calcium currents inhibition in HEK293 cells. Format: cell-based. To be noted: tonic block, preconditioning −50/−55 mV (half maximal steady-state inactivated condition); read-out: IC50 (Vhalf). As to the method:
Functional inhibition of the N-type Ca currents was studied using whole cell patch clamp methods (Hamill O. P., Marty A., Neher E., Sakmann B., Sigworth F. J. Pflugers Arch. (1981) 391: 85-100) on HEK293 cells expressing recombinant human N-type channels, obtained after transient transfection of h α1B (hCav2.2)+β1b+α2δ-1 subunits.
Membrane currents were recorded and filtered at 5 kHz with an Axon Axopatch 200B amplifier and digitized with an Axon Digidata 1322A (Axon Instruments, CA, USA). Voltage clamping of membrane potentials and data acquisition were controlled online with Axon pClamp8 software. Measuring and reference electrodes were AgCl—Ag electrodes. Cells had initial seal resistances of >1 GΩ and access resistances of 4.2±0.2 MΩ. Cells were continuously superfused with extracellular solutions using a Biologic RSC-200.
For calcium currents recording the control bath solution contained (mM): Choline chloride (70), MgCl2 (1), BaCl2 (20), TEA.Cl (50), Hepes (10), Glucose (10). Internal pipette solution consisted of (mM): CsCl (140), EGTA (10), MgCl2 (2), Hepes (10), MgATP (1), GTP Tris (0.3).
as §1
A two-step protocol was used to determine the voltage dependence of the block:
N-type current was activated by a 600 ms step pulse to +10 mV (test pulse) from a 5000 ms preconditioning potential of −110 mV (resting condition) or −50/−55 mV (half maximal steady-state inactivated condition), respectively.
The amplitude of calcium current peaks evoked by the respective test pulses at a frequency of 0.06 Hz were measured before and after exposure to the test substance. Tonic block of currents was calculated as the difference between the peak calcium current measured at the end of a stabilization period in the control external bath solution and peak currents measured at the end of test substance perfusion period (when steady state is reached) divided by control peaks. […]

In test [5] the target is N-type calcium channels (Homo sapiens, UniProt Q00975). The test is described as follows: N-type calcium channel influx assay (fluorescence). It counts as cell-based. The settings on record: differentiated IMR32 cells, nifedipine 1 μM, 100 mM KCl depolarization; read-out: IC50.
Test [6] relates to L-type calcium channels. Format: cell-based, mouse. To be noted: AtT20/D16v-F2 cells, ω-conotoxin 1 μM, 100 mM KCl depolarization.
Setting [7] is: 10 mg/Kg i.p. + PCP (1.5 mg/kg).

T1 sequence (Q9NY46 whole entry): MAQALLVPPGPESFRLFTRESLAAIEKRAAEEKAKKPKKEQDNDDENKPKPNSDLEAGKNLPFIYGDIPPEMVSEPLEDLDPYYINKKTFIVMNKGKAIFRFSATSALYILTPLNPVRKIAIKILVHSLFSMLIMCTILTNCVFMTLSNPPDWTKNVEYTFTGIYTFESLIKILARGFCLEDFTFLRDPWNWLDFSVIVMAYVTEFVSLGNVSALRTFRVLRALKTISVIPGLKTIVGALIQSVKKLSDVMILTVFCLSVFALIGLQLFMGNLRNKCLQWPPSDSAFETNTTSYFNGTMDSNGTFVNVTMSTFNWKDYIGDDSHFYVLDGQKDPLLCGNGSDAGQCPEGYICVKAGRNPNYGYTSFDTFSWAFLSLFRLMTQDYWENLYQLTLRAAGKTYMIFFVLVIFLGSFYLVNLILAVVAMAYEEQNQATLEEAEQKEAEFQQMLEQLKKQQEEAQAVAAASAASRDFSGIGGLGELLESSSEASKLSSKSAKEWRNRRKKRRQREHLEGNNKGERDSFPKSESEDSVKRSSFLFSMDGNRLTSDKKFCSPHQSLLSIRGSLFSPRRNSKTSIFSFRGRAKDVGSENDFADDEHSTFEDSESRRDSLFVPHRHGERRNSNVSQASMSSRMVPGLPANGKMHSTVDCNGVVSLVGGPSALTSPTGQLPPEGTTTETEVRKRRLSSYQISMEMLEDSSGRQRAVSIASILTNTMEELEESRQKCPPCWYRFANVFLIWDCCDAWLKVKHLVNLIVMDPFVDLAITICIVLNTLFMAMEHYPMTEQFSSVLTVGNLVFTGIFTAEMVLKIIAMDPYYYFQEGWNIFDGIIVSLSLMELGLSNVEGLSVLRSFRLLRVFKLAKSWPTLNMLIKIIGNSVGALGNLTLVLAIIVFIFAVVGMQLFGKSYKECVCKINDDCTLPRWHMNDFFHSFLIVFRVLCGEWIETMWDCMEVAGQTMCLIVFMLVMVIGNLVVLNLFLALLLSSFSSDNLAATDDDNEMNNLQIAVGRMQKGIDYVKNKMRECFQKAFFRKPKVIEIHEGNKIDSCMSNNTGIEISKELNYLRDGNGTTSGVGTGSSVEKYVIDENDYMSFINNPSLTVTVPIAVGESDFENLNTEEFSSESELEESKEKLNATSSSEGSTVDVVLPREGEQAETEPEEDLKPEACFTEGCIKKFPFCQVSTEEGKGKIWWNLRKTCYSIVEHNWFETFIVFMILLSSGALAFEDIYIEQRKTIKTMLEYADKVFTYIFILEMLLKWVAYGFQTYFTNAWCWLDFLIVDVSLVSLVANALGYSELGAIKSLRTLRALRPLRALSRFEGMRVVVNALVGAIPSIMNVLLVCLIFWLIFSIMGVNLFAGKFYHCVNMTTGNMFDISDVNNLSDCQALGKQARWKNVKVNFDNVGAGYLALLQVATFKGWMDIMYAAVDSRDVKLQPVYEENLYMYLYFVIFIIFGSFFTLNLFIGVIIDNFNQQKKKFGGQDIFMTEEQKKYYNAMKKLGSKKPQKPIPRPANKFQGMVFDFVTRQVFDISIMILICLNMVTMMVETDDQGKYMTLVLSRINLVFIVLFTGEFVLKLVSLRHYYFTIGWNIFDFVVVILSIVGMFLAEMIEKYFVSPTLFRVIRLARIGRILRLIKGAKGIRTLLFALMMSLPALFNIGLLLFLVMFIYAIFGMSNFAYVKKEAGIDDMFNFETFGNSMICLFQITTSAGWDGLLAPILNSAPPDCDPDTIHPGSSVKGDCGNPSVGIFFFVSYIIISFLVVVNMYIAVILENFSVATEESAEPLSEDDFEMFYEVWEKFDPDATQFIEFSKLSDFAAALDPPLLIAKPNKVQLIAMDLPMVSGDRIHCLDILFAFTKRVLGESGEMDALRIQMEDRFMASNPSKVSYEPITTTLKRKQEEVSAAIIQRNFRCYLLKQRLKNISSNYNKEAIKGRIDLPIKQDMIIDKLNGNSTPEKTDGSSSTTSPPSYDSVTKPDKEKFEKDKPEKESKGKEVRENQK

On to `CCCCOc1cccc(CCN(CC(=O)N(C)C)CC2CCOC2)c1.Cl` (racemic) [Example 96, 2-[[2-(3-Butoxy-phenyl)-ethyl]-(tetrahydrofuran-3-ylmethyl)amino]-N,N-dimethyl-acetamide hydrochloride], for which, in test [1] (setting [7]), the “N of anticipatory resposnses” value is listed as 3.7 ± 1.6 and the “N of perseverative responses” value is 15.7 ± 3.1. In test [1] (10 mg/Kg i.p. + vehicle), the “N of anticipatory resposnses” value is 3.3 ± 0.7 and the “N of perseverative responses” value came out at 20.9 ± 1.3. The IC50 in test [2] came to 3.1 µM. Also, the “50% Protection” value in test [3] was “(0.8 mg/kg/iv)”.

As for `C[C@H](NCc1ccc(OCc2ccccc2F)cc1)C(N)=O` [ralfinamide, (S)-(+)-2-[4-(2-fluoro-benzyloxy)-benzylamino]-propanamide, reference compound], the half-inhibitory concentration (IC50) was determined as 15 µM in test [2], 15 µM in test [4], 23 µM in test [5] and 26 µM in test [6].

The values above are taken from patent US8129427B2, “2-phenylethylamino derivatives as calcium and/or sodium channel modulators” (Newron Pharmaceuticals S.p.A., priority 2005, dated 2012).
